Laboratory results from PMC8766838, “Discovery of Small Molecule NSC290956 as a Therapeutic Agent for KRas Mutant Non-Small-Cell Lung Cancer” (Frontiers in Pharmacology, 2022).

Experiments:
KRas = biological target: T1, KRas (Homo sapiens, UniProt P01116, G12S); assay: CETSA in A549 cells ([…]°C stabilization at […]); assay type: cell-based
T1 construct: endogenous, A549 cells

HRasG60A = biological target: T2, HRasG60A (Homo sapiens, UniProt P01112, G60A); assay: SPR (steady-state); circular dichroism in support; assay type: binding
T2 construct: gene HRAS
T2 sequence (P01112 1-166 G60A): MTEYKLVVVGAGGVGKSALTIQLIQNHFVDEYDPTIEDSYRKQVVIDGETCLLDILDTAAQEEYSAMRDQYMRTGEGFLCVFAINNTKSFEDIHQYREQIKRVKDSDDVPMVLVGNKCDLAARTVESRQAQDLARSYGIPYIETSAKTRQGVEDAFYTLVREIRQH

O=C1CSC2(CCN(CCCN3c4ccccc4Sc4ccc(Cl)cc43)CC2)N1 [NSC290956, 1-Thia-4,8-diazaspiro[4.5]decan-3-one,8-[3-(2-chloro-10H-phenothiazin-10-yl)propyl]]
CETSA in A549 cells (4-6°C stabilization at 25 μM) (KRas): target engagement of NSC290956 in KRas-addicted H358 (KRasG12C) and A549 (KRasG12S) cell lines
Kd (HRasG60A): 21.3 µM
